The numbers were not newly measured in patent publication US12233048B2 (Société des Produits Nestlé S.A., priority 2022, dated 2025), which cites them from elsewhere.

Structures are written as SMILES.

Take `COc1ccc2[nH]cc(CCNC(C)=O)c2c1` [melatonin, N-acetyl-5-methoxytryptamine]: the “time after ingestion for blood plasma concentration to reach its peak” value (after ingestion) is reported as “more than 30 minutes”. Also, the bioavailability entry (exogenous melatonin) is “poor and highly variable”.
